Measurements as given in paper PMC6482412, “Studies on spiro[4.5]decanone prolyl hydroxylase domain inhibitors” (MedChemComm, 2019).
Read-outs that look alike come from different tables or passages of the source.

What was measured:
Type in all cases: biochemical
[1] = target: T1, tPHD2 (PHD2 181-426) with HIF-1α CODD (Homo sapiens, UniProt Q9GZT9); assay: RapidFire-MS PHD2 hydroxylation assay, HIF-1α CODD peptide substrate; conditions: for tPHD2 inhibition (in words): tPHD2, HIF-1α CODD substrate
T1 construct: catalytic domain of truncated PHD2 (tPHD2, residues 181–426); His6 (N, cleaved yes); made in house; host or cells: E. coli BL21 DE3
Experimental: (§1) 11–16 were then assayed using mass spectrometry (MS) for inhibition of the catalytic domain of truncated PHD2 (tPHD2, residues 181–426) and (in selected cases) PHD3, employing either human HIF-1α CODD or NODD peptide sequences (Table 1).
(§2) Supplementary Information
(§3) RapidFire-MS PHD2 hydroxylation assays
(§4) Inhibition of PHD2 enzyme activity was assessed by mass spectrometry. The enzyme assay monitors tPHD2181-426 catalysed turnover of a C-terminal oxygenase […]
(§5) C-terminal amide) and appearance of the hydroxylated peptide product
(§6) (hydroxylation of proline 564) with a typical incubation time of 15 minutes.2 Assays were performed in 50 mM Tris.Cl pH 7.8, 50 mM NaCl, titrations of compounds for […]
(§7) ECHO 550 acoustic dispenser (Labcyte) and dry dispensed into 384-well polypropylene assay plates. The final assay concentration of DMSO was kept constant at 0.5% (v/v). tPHD2181-426 was at a concentration of 300 nM in the assay buffer (20 μM ferrous iron sulfate, 200 μM L-ascorbic acid, 10 μM CODD or NODD peptide and 20 μM 2-oxoglutarate) and 25 μl was dispensed across each 384-well assay plate. tPHD2181-426 was allowed to equilibrate with compounds for 15 minutes; the reaction was then initiated by addition of 25 μl of substrate.2 Enzyme reactions were allowed to proceed for 15 minutes and the reaction terminated by addition of 10% (v/v) formic acid (5 μl). Assay plates were then transferred to a RapidFire RF360 sampling robot (Agilent) connected to an Agilent 6530 quadrupole-time-of-flight (Q-TOF) mass spectrometer. Assay samples were aspirated under vacuum and loaded onto a C4 solid phase extraction (SPE) cartridge. After loading, the C4 SPE cartridge was washed with 0.1 % (v/v) formic acid in water to remove non-volatile buffer salts.
(§8) The peptide was then eluted from the SPE with 85% acetonitrile, 15% water containing 0.1% (v/v) formic acid into the mass spectrometer. Peptide charge states were monitored in the positive ion mode. Ion chromatogram data were extracted for […]
(§9) the +2 charge state and peak area data integrated using RapidFire Integrator software (Agilent). The % conversion of the CODD peptide substrate to the +16 hydroxylated peptide was calculated using the equation: […]
(§10) data were determined from non-linear regression plots using GraphPad prism 6.0.
(§11) All data were normalized to a no enzyme control.2

[2] = target: T2, tPHD2 (PHD2 181-426) with HIF-1α NODD (Homo sapiens, UniProt Q9GZT9); assay: RapidFire-MS PHD2 hydroxylation assay, HIF-1α NODD peptide substrate
T2 construct: catalytic domain of truncated PHD2 (tPHD2, residues 181–426); His6 (N, cleaved yes); made in house; host or cells: E. coli BL21 DE3
Experimental: as §1, §2, §3, §4, §5, §6, §7, §8, §9, §10, §11

KDM4A = target: T3, KDM4A (Homo sapiens, UniProt O75164); assay: KDM4A selectivity assay with H3(1-15) K9Me3, RapidFire-MS; conditions: isolated KDM4A, Table S2
T3 sequence (O75164 1-1064): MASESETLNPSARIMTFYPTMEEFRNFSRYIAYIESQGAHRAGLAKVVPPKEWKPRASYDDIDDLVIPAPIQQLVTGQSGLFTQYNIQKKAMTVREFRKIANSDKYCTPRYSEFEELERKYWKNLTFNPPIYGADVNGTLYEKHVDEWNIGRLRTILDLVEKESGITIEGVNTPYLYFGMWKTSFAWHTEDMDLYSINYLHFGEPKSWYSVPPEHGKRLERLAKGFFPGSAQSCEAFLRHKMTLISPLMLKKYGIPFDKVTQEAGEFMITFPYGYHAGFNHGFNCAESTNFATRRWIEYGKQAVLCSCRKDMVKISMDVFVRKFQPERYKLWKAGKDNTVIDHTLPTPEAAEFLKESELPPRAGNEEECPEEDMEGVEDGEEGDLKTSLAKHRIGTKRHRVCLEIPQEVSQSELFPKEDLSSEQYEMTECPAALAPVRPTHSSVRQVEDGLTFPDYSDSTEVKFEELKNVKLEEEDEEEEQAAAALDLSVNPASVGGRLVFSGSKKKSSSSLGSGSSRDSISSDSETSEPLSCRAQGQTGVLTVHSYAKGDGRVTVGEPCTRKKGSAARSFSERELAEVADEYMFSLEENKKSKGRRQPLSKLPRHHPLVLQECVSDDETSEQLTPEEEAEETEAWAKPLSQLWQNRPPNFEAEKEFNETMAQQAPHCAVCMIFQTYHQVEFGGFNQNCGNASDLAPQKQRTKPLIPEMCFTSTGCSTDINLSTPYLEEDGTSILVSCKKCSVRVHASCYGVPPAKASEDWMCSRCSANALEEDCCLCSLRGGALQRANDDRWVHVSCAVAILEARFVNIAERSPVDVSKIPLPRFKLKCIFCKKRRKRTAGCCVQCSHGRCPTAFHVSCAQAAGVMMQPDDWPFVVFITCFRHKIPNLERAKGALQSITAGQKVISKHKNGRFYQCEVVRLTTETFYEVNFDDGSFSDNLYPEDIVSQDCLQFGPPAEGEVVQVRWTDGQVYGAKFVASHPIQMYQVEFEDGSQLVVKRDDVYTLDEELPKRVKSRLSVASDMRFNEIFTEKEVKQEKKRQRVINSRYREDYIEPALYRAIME
Text: (§12) We carried out initial studies on the selectivity of the spiro[4.5]decanone series.
as §2
(§13) Table S2: Studies on the selectivity of spiro[4.5]decanone containing inhibitors.
(§14) Compounds were screened against FIH with the HIF-1α CAD peptide D788 - L822 and
(§15) KDM4A with H3(1 - 15) K9Me3. Both assays employed the RapidFire-MS sampling
(§16) machine. See Experimental Methods for details. 2 […]

PHD3 = PHD3 (Homo sapiens, UniProt Q9H6Z9); assay: PHD3 catalysed HIF-1α CODD hydroxylation, RapidFire mass spectrometry
Experimental: as §1, §12

[3] = target: factor inhibiting HIF (FIH) (Homo sapiens, UniProt Q9NWT6); assay: FIH selectivity assay with HIF-1α CAD peptide D788-L822, RapidFire-MS; conditions: isolated FIH, Table S2
Text: as §12, §2, §13, §14, §15, §16

[4] = tPHD2 181-426, HIF-1α CODD peptide, RapidFire MS, standard error of the mean (n = 3), read-out: PHD2 with HIF1-α CODD IC50
[5] = tPHD2 181-426, HIF-1α NODD peptide, RapidFire MS, standard error of the mean (n = 3), read-out: PHD2 with HIF1-α NODD IC50

T1 sequence (Q9GZT9 181-426): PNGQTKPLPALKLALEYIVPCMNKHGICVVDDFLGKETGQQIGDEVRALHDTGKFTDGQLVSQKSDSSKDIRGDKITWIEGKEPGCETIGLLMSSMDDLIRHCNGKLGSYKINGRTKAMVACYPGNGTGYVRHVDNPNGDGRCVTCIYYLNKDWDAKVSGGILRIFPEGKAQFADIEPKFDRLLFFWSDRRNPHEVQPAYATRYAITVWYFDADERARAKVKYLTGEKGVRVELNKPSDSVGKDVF
T2 sequence (Q9GZT9 181-426): as above
Sequence of PHD3 (Q9H6Z9 whole entry): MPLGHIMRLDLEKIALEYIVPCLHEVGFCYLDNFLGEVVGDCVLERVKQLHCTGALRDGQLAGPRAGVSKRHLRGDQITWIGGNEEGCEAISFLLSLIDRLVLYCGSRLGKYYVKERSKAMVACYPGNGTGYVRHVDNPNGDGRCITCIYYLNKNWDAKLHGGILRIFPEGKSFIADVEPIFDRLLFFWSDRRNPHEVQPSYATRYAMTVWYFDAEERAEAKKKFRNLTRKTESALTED
Sequence of factor inhibiting HIF (FIH) (Q9NWT6 whole entry): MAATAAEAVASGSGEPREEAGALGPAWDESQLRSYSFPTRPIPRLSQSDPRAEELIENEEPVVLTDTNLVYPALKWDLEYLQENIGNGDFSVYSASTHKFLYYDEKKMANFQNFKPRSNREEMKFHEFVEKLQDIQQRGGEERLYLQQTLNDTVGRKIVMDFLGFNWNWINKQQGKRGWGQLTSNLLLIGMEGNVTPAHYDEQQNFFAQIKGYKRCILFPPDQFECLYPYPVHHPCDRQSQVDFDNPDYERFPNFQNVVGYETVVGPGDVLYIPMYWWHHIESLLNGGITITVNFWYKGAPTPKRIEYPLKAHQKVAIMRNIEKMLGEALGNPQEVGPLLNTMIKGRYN

Row | Structure (SMILES) | IC50 [1, 4] [nM] | IC50 [2, 5] [nM] | tPHD2 inhibition (in words) [1] | other results
1 | O=C1N(c2ccc(-c3ccccc3)cc2)C(=O)C2(CCNCC2)N1c1ncccn1 [Compound 10] | > 25000 | > 25000 | – | –
2 | Cc1cccnc1CN1CCC2(CC1)C(=O)N(c1ccc(-c3ccccc3)cc1)C(=O)N2c1ncccn1 [Compound 11] | – | – | – | KDM4A inhibition (in words) (KDM4A): weak
3 | O=C1N(c2ccc(-c3ccccc3)cc2)C(=O)C2(CCN(Cc3cccs3)CC2)N1c1ncccn1 [Compound 12] | > 25000 | > 25000 | inactive | –
4 | O=C1N(c2ccc(-c3ccccc3)cc2)C(=O)C2(CCN(Cc3ccccc3O)CC2)N1c1ncccn1 [Compound 13] | – | – | inactive | IC50 [1]: > 25000 nM; IC50 [2]: > 25000 nM
5 | Cn1ccnc1CN1CCC2(CC1)C(=O)N(c1ccc(-c3ccccc3)cc1)C(=O)N2c1ncccn1 [Compound 14] | – | – | maintained potent inhibition | KDM4A inhibition (in words) (KDM4A): weak; IC50 [1]: 143 ± 97 nM; IC50 [2]: 49 ± 5 nM
6 | O=C1N(c2ccc(-c3ccccc3)cc2)C(=O)C2(CCN(Cc3ncc[nH]3)CC2)N1c1ncccn1 [Compound 15] | 215 ± 19 | 70 ± 21 | maintained potent inhibition | –
7 | COc1cccc(CN2CCC3(CC2)C(=O)N(c2ccc(-c4ccccc4)cc2)C(=O)N3c2ncccn2)n1 [Compound 16] | 1210 ± 226 | 905 ± 417 | – | –
8 | Cc1cccnc1CN1CCC2(CC1)NC(=O)N(c1ccc(-c3ccccc3)cc1)C2=O [Compound 23] | – | – | – | IC50 (PHD3): 1050 ± 40 nM
9 | Cn1ccnc1CN1CCC2(CC1)NC(=O)N(c1ccc(-c3ccccc3)cc1)C2=O [Compound 24] | 151 ± 35 | 63 ± 16 | – | IC50 (PHD3): 219 ± 25 nM
10 | COc1ccnc(N2C(=O)N(c3ccc(-c4ccccc4)cc3)C(=O)C23CCN(Cc2ncccc2C)CC3)n1 [Compound 26] | 289 ± 11 | 55 ± 15 | – | FIH inhibition (in words) [3]: weak
11 | Cc1cccnc1CN1CCC2(CC1)C(=O)N(c1ccc(-c3ccccc3)cc1)C(=O)N2c1cc(C(=O)O)ccn1 [Compound 27] | 380 ± 64 | 94 ± 32 | – | –
